According to US20070275382A1, “Biomarkers for the Efficacy of Somatostatin Analogue Treatment” (priority 2003, published 2007):
*1 amine or outer side, *2 acyl side, *3 side chain or, on linkers, in order; H or OH if unused. Where a SMILES comes first, the peptide text is derived from it. Side-chain parts run from the residue outwards. [ ]: non-standard residue; d: D form. The star is where a group is joined. Ethylenediamine = C(CN[*:2])N[*:1]; Hyp = O=C(O)[CH]1C[CH](O)CN1; Phg = N[CH](C(=O)O)c1ccccc1; CO = O=C([*:1])[*:2]; Bn = c1ccc(C*)cc1

System: Thyroid
Assay: Microarray gene expression profiling (HG-U95A), thyroid
Format: in vivo, cynomolgus monkeys
Procedure: Origin of tissue and processing. Male and female cynomolgus monkeys received subcutaneously pasireotide (100 μg/animal/day) or the vehicle for 14 days. On day 15, all animals were sacrificed and tissues for RNA extraction were immediately snap-frozen and kept at −80° C. until processing.
RNA expression profiling was conducted by means of the HG-U95A gene expression probe array (Affymetrix; Santa Clara, Calif. USA), containing more than 12,600 probe sets interrogating primarily full-length human genes and also some control probe sets. The experiment was conducted according to the recommendations of the manufacturer. Briefly, total RNA was obtained by acid guanidinium thiocyanate-phenol-chloroform extraction (Trizol®, Invitrogen Life Technologies, San Diego, Calif. USA) from each frozen tissue section. The total RNA was then purified on an affinity resin (Rneasy®, Qiagen) and quantified. Double stranded cDNA was synthesized with a starting amount of approximately 5 μg full-length total RNA using the Superscript® Choice System (Invitrogen Life Technologies, Carlsbad, Calif. USA) in the presence of a T7-(dT)24 DNA oligonucleotide primer. Following synthesis, the cDNA was purified by phenol/chloroform/isoamyl alcohol extraction and ethanol precipitation. The purified cDNA was then transcribed in vitro using the BioArray® High Yield RNA Transcript Labeling Kit (ENZO, Farmingdale, N.Y. USA) in the presence of biotinylated ribonucleotides form biotin labelled cRNA. The labelled cRNA was then purified on an affinity resin (Rneasy®, Qiagen), quantified and fragmented. An amount of approximately 10 μg labelled cRNA was hybridized for 16 hours at 45° C. to an expression probe array. The array was then washed and stained twice with streptavidin-phycoerythrin (Molecular Probes,) using the GeneChip® Fluidics Workstation 400 (Affymetrix, Santa Clara, Calif. USA). The array was then scanned twice using a confocal laser scanner (GeneArray® Scanner, Agilent, Palo Alto, Calif. USA) resulting in one scanned image. This resulting “.dat-file” was processed using the MAS4 program (Affymetrix) into a “.cel-file”. The “.cel file” was captured and loaded into the Affymetrix GeneChip® Laboratory Information Management System (LIMS). The LIMS database is connected to a UNIX Sun Solaris server through a network filing system that allows for the average intensities for all probes cells (CEL file) to be downloaded into an Oracle database (NPGN). Raw data was converted to expression levels using a “target intensity” of 150. The data were evaluated for quality control and loaded in the GeneSpring® software 4.2.4 (Silicon Genetics, Calif. USA) for analysis.
On the human Affymetrix HGU95Av2 chip, probe sets for individual genes contain 20 oligonucleotide pairs, each composed of a “perfect match” 25-mer and a “mismatch” 25-mer differing from the “perfect” match oligonucleotide at a single base. After probe labelling, hybridization, and laser scanning, the expression level was estimated by averaging the differences in signal intensity measured by oligonucleotide pairs of a given probe (AvgDiff value). The fold changes and directions were calculated for selected genes, from the differences of the AvgDiff values between controls and treated.
To identify genes that were impacted by pasireotide, the dataset was initially filtered to exclude in a first wave of analysis, genes whose values were systematically in the lower expression ranges where the experimental noise is high (at least 80 in a number of experiments corresponding to the smallest number of replicas of any experimental point). In a second round of selection a threshold p-value of 0.05 (based on a t-test) identified differences between treated and control based on a two component error model (Global Error Model) and, whenever possible, with a stepdown correction for multi-hypothesis testing (Benjamini and Hochberg false discovery rate). […]

[1] = ↑ increase, treated vs controls
[2] = ↓ decrease, treated vs controls

With `NCCCCC1NC(=O)C(Cc2c[nH]c3ccccc23)NC(=O)C(c2ccccc2)NC(=O)C2CC(OC(=O)NCCN)CN2C(=O)C(Cc2ccccc2)NC(=O)C(Cc2ccc(OCc3ccccc3)cc2)NC1=O` (stereo not drawn) [Pasireotide, cyclo[4-(NH2—C2H4—NH—CO—O)Pro-Phg-DTrp-Lys-Tyr(4-Bzl)-Phe]] (cyclo(F[Hyp]([CO-Ethylenediamine])[Phg]WKY(Bn)); configuration not given here) the “IGF-1 expression level, AvgDiff (range)” value (0.1 mg/animal/14day) was 58 (20 to 114), the “Endothelial differentiation-related factor 1 RNA expression change” value (direction only, treated vs controls) was “related factor 1 ↑” and the “CD2 antigen (cytoplasmic tail)-binding protein 2 RNA expression fold change” value [1] was “↑ x3.5”. The “Cadherin 13, H-cadherin (heart) RNA expression fold change” value [1] was “↑ x2”, the “Cannabinoid receptor 2 (macrophage) RNA expression fold change” value [1] was “↑ x3” and the “GABA (B) receptor 1, isoform a precursor RNA expression fold change” value [1] was “↑ x2.5”. The “IFNα-inducible protein 27 RNA expression fold change” value [1] was “protein 27 ↑ x3”, the “IFNγ-inducible protein 30 RNA expression fold change” value [1] was “↑ x3.5” and the “PDGF-associated Protein RNA expression fold change” value [1] was “Protein ↑ x2”. The “PDGFR β RNA expression fold change” value [1] was “↑ x2”, the “Phosphatidyl ethanolamine N-methyl-transferase RNA expression fold change” value [1] was “↑ x2” and the “Pro-platelet basic protein (includes platelet basic protein, β-thromboglobulin, connective tissue-activating peptide III, neu) 2 RNA expression fold change” value [1] was 2 ↑ x3.5. For the same molecule, the “RANTES RNA expression fold change” value [1] was “↑ x10.5”, the “Solute carrier family 21 (PG transporter), member 2 RNA expression fold change” value [1] was “member 2 ↑ x2” and the “TNF (ligand) superfamily, member 10 RNA expression fold change” value [1] was “↑ x2”. The “Thrombospondin 2 RNA expression fold change” value [1] was “spondin 2 ↑ x2”, the “VWF precursor RNA expression fold change” value [1] was “precursor ↑ x2” and the “ATPase, Ca++ transporting, cardiac muscle, fast twitch 1 RNA expression fold change” value [2] was “↓ x4.5”. For the same molecule, the “Adenylate cyclase activating polypeptide precursor RNA expression fold change” value [2] was “↓ x1.5”, the “Adrenergic, α-2C-, receptor RNA expression fold change” value [2] was “↓ x2.5” and the “Bcl-2 binding component 3 RNA expression fold change” value [2] was “↓ x2”. For the same molecule, the “Brain cannabinoid receptor 1 RNA expression fold change” value [2] was “↓ x2”, the “CD2 antigen (p50), sheep red blood cell receptor RNA expression fold change” value [2] was “↓ x7.5” and the “COL1A1 and PDGFB fusion transcript RNA expression fold change” value [2] was “transcript ↓ x6”. The “Calcium/calmodulin dependent protein kinase 1 RNA expression fold change” value [2] was “↓ x2”, the “Calcium/calmodulin-dependent PK IV RNA expression fold change” value [2] was “IV ↓ x7.5” and the “Calmodulin-dependent PK IV (CaM-kinase IV) RNA expression fold change” value [2] was “IV) ↓ x7.5”. For the same molecule, the “Cdc-like 5 (cholinesterase-related cell division controller) RNA expression fold change” value [2] was “↓ x2”, the “Cdk 5, regulatory subunit 1 (p35) RNA expression fold change” value [2] was “↓ x5” and the “Chemokine (C-X-C motif), receptor 4 (fusin) RNA expression fold change” value [2] was “(fusin) ↓ x3”. The “Cholecystokinin B receptor RNA expression fold change” value [2] was “B receptor ↓ x3”, the “Cyclin B2 RNA expression fold change” value [2] was “↓ x2.5” and the “DAG 1 kinase, α (80 kD) RNA expression fold change” value [2] was “↓ x4”. The “EGF-like module containing, mucin-like, hormone receptor-like sequence 1 RNA expression fold change” value [2] was “↓ x5”, the “FKBP-associated protein RNA expression fold change” value [2] was “protein ↓ x2.5” and the “Flt3 ligand RNA expression fold change” value [2] was “Flt3 ligand ↓ x4.5”. The “Fms-related tyrosine kinase 1(VEGF/vascular permeability factor receptor) RNA expression fold change” value [2] was “↓ x2”, the “GABA (A) receptor, γ2 precursor RNA expression fold change” value [2] was “↓ x1.5” and the “Gastric inhibitory polypeptide 1 receptor RNA expression fold change” value [2] was “receptor ↓ x2”. For the same molecule, the “Glutamate receptor, metabotropic 2 precursor RNA expression fold change” value [2] was “precursor ↓ 3.5”, the “Growth arrest-specific 1 RNA expression fold change” value [2] was “↓ x2.5” and the “IFNγ responsive transcript RNA expression fold change” value [2] was “transcript ↓ x1.5”. The “IGF-1 RNA expression fold change” value [2] was “IGF-1 ↓ x1.5”, the “IL2-inducible T-cell kinase RNA expression fold change” value [2] was “cell kinase ↓ x12” and the “IL9 receptor RNA expression fold change” value [2] was “↓ x2”. The “IP3 receptor type 3 RNA expression fold change” value [2] was “↓ x1.5”, the “K+ voltage-gated channel, shaker-related subfamily, member 3 RNA expression fold change” value [2] was “↓ x4.5” and the “LTB4 receptor (chemokine receptor-like 1) RNA expression fold change” value [2] was “↓ x1.5”. The “Lymphocyte specific protein tyrosine kinase RNA expression fold change” value [2] was “↓ x4”, the “P56lck RNA expression fold change” value [2] was “P56lck ↓ x18” and the “PDGFR α RNA expression fold change” value [2] was “↓ x3”. The “PIP 5-phosphatase type IV RNA expression fold change” value [2] was “x3”, the “PLC, γ 1 (formerly subtype 148) RNA expression fold change” value [2] was 148) ↓ x2 and the “RAG1 RNA expression fold change” value [2] was “RAG1 ↓ x18”. For the same molecule, the “RAG2 RNA expression fold change” value [2] was “RAG2 ↓ x5”, the “SH2 domain protein 1A, Duncan's disease (lymphoproliferative syndrome) RNA expression fold change” value [2] was “↓ x7.5” and the “Signalling lymphocytic activation molecule RNA expression fold change” value [2] was “molecule ↓ x4.5”. For the same molecule, the “TCR ζ chain precursor RNA expression fold change” value [2] was “precursor ↓ x5.5”, the “TSHR RNA expression fold change” value [2] was “TSHR ↓ x2” and the “Transcription factor 7 (T-cell specific, HMG-box) RNA expression fold change” value [2] was “box) ↓ x16.5”. For the same molecule, the “c-AMP responsive element binding protein 1 RNA expression fold change” value [2] was “protein 1 ↓ x2”.
